In PubChem BioAssay AID1963843 (Molecular Pharmacology Branch, DTP, NCI, 2024):

Test system: 616215-338-R-J1-PDC complex spheroid viability
Test: Anticancer human tumor 616215-338-R-J1-PDC patient-derived colon adenocarcinoma cell line growth inhibition [POLQ]
Settings: for IC50: curve of first compound; for viability, T/C: stronger effect = lower value
Description: Multicellular complex tumor spheroid response to Polymerase (POL) inhibitors (novobiocin, ART-558, RP6685) in combination with a variety of drugs and investigational agents in selected tumor cell lines
The POL inhibitors (novobiocin, ART-558, and RP6685) were evaluated both individually and in combination with standard of care and investigational anticancer small molecules within a complex spheroid model of solid tumors. . Complex spheroids include a stromal component modeled by human endothelial cells (HUVEC) and fibroblasts modeled by human mesenchymal stem cells (MSCs). The concentration ranges selected for each drug and investigational agent were based upon clinically achievable concentrations if the clinical Cmax of the agent was known.
Compounds. The drugs and investigational agents: novobiocin (NSC847541), ART-558 (NSC835418), RP-6685 (NSC848927), peposertib (NSC802822), ceralasertib (NSC780249), elimusertib (NSC800525), camonsertib (NSC841442), AZD-1390 (NSC803789), olaparib (NSC753686), talazoparib (NSC767125), rucaparib (NSC756644), sotorasib (NSC818433), MRTX-1133 (NSC836407), SN-38 (NSC673596), topotecan (NSC609699), epotoside (NSC141540), doxorubicin (NSC123127), gemcitabine (NSC613327), 5-fluorouracil (NSC19893), paclitaxel (NSC125973), vemurafenib (NSC761431), MSA-2 (NSC828583), SN-011 (NSC837082), adavosertib (NSC754352), prexasertib (NSC758257), carboplatin (NSC241240) and oxaliplatin (NSC266046), were obtained from the National Cancer Institute (NCI) Developmental Therapeutics Program Chemical Repository (21). The FDA-approved anticancer drug set is available from the Developmental Therapeutics Program at https://dtp.cancer.gov/organization/dscb/obtaining/. […] The stock solutions were prepared in dimethyl sulfoxide (DMSO, Sigma-Aldrich, St. Louis, MO, cat. D2650), except for the platinum compounds which were prepared in saline (Quality Biological, Gaithersburg, MD, cat. 114-055-101), at 800-fold the tested concentration and stored at -70 degrees C prior to their use. All drugs and investigational agents were tested over a range starting from a high concentration at or near the clinical Cmax and decreasing in half-log increments. If the clinical Cmax for an agent had not been determined, the highest concentration tested was 10 microM, except for SN-38, which was tested at a high concentration of 1 microM.
Cell Culture. All cells were maintained in an incubator at 37 degrees C and 5% CO2 with 95% humidity. The PDC lines were cultured according to standard operating procedures established by the NCI PDMR (https://pdmr.cancer.gov). Table 3 of the manuscript, lists the cell lines along with the number of the three cell types plated to form the mct-spheroids and media for tumor cell growth. After thawing, all PDC lines, except 997537-175-T-J1-PDC and 415267-285-R-J2-PDC, were cultured in Matrigel-coated flasks prepared with a working solution of 1X Ham's F-12 nutrient mix, without supplementation (Thermo Fisher Scientific, cat. 11765054), 100 U/mL penicillin-streptomycin (Thermo Fisher Scientific, cat. 15140122), and 2.5% Matrigel (Corning Inc., Corning, NY, cat. 354248) for the first three passages. The two PDC lines 997537-175-T-J1-PDC and 415267-285-R-J2-PDC were cultured on uncoated flasks. The 857933-349-R-J2-PDC line was cultured in 6C/Colon 1B media containing advanced DMEM/F-12 (Thermo Fisher Scientific, cat. 12634028), 10 mM HEPES (Thermo Fisher Scientific, cat. 15630080), 1X GlutaMAX supplement (Thermo Fisher Scientific, cat. 35050061), 0.1 mg/mL primocin (InvivoGen, San Diego, CA, cat. ant-pm-2), 10% defined fetal bovine serum, heat inactivated (HyClone Laboratories Inc., Logan, UT, cat. SH30070.03HI), 50% L-WRN conditioned media (ATCC, cat. CRL-3276), 1.25 mM N-Acetyl-L-cysteine (Sigma-Aldrich, cat. A9165), 10 mM nicotinamide (Sigma-Aldrich, cat. N0636), 1X B-27 supplement (Thermo Fisher Scientific, cat. 17504044), 1X N-2 supplement (Thermo Fisher Scientific, cat. […]

[1] = second compound 0.0316 µM, first compound 0.0316 µM
[2] = second compound 0.0316 µM, first compound 0.1 µM
[3] = second compound 0.0316 µM, first compound 0.316 µM
[4] = second compound 0.0316 µM, first compound 1 µM
[5] = second compound 0.0316 µM, first compound 3.16 µM
[6] = second compound 0.0316 µM, first compound 10 µM
[7] = second compound 0.1 µM, first compound 0.0316 µM
[8] = second compound 0.1 µM, first compound 0.1 µM
[9] = second compound 0.1 µM, first compound 0.316 µM
[10] = second compound 0.1 µM, first compound 1 µM
[11] = second compound 0.1 µM, first compound 3.16 µM
[12] = second compound 0.1 µM, first compound 10 µM
[13] = second compound 0.316 µM, first compound 0.0316 µM
[14] = second compound 0.316 µM, first compound 0.1 µM
[15] = second compound 0.316 µM, first compound 0.316 µM
[16] = second compound 0.316 µM, first compound 1 µM
[17] = second compound 0.316 µM, first compound 3.16 µM
[18] = second compound 0.316 µM, first compound 10 µM
[19] = second compound 1 µM, first compound 0.0316 µM
[20] = second compound 1 µM, first compound 0.1 µM
[21] = second compound 1 µM, first compound 0.316 µM
[22] = second compound 1 µM, first compound 1 µM
[23] = second compound 1 µM, first compound 3.16 µM
[24] = second compound 1 µM, first compound 10 µM
[25] = second compound 3.16 µM, first compound 0.0316 µM
[26] = second compound 3.16 µM, first compound 0.1 µM
[27] = second compound 3.16 µM, first compound 0.316 µM
[28] = second compound 3.16 µM, first compound 1 µM
[29] = second compound 3.16 µM, first compound 3.16 µM
[30] = second compound 3.16 µM, first compound 10 µM
[31] = second compound 10 µM, first compound 0.0316 µM
[32] = second compound 10 µM, first compound 0.1 µM
[33] = second compound 10 µM, first compound 0.316 µM
[34] = second compound 10 µM, first compound 1 µM
[35] = second compound 10 µM, first compound 3.16 µM
[36] = second compound 10 µM, first compound 10 µM
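Also: spheroids exposed to compounds for one week before readout.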
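For viability, T/C in this document: percent viability relative to DMSO vehicle wells taken as 100%.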

## CC1COCCN1c1cc(C2(O)CC3CCC(C2)O3)c2cnn(-c3ccn[nH]3)c2n1 (stereo unspecified) + Nc1ccc(C#CCN(C(=O)Cc2ncc(C(F)(F)F)cc2C(F)(F)F)c2ccc(F)cc2)nn1
Second compound 0.0316 µM
  IC50: 0.337 µM
Second compound 0.1 µM
  IC50: 0.276 µM
Second compound 0.316 µM
  IC50: 0.271 µM
Second compound 1 µM
  IC50: 0.25 µM
Second compound 3.16 µM
  IC50: 0.143 µM
Second compound 10 µM
  IC50: 0.16 µM
[1]
  viability, T/C: 94.8%
[2]
  viability, T/C: 67.6%
[3]
  viability, T/C: 52.2%
[4]
  viability, T/C: 37.1%
[5]
  viability, T/C: 24.3%
[6]
  viability, T/C: 17.9%
[7]
  viability, T/C: 98.6%
[8]
  viability, T/C: 76.6%
[9]
  viability, T/C: 37.8%
[10]
  viability, T/C: 38.1%
[11]
  viability, T/C: 24.3%
[12]
  viability, T/C: 15.3%
[13]
  viability, T/C: 93.8%
[14]
  viability, T/C: 76.3%
[15]
  viability, T/C: 42%
[16]
  viability, T/C: 35.2%
[17]
  viability, T/C: 27.6%
[18]
  viability, T/C: 19.9%
[19]
  viability, T/C: 94.1%
[20]
  viability, T/C: 69.1%
[21]
  viability, T/C: 39.5%
[22]
  viability, T/C: 36.8%
[23]
  viability, T/C: 28.6%
[24]
  viability, T/C: 18.5%
[25]
  viability, T/C: 92.8%
[26]
  viability, T/C: 54.9%
[27]
  viability, T/C: 36.3%
[28]
  viability, T/C: 26.7%
[29]
  viability, T/C: 27.3%
[30]
  viability, T/C: 14.6%
[31]
  viability, T/C: 101%
[32]
  viability, T/C: 56.2%
[33]
  viability, T/C: 36.6%
[34]
  viability, T/C: 26.9%
[35]
  viability, T/C: 24.2%
[36]
  viability, T/C: 9.04%

## C#Cc1c(F)ccc2cc(O)cc(-c3ncc4c(N5CC6CCC(C5)N6)nc(OCC56CCCN5CC(F)C6)nc4c3F)c12 (stereo unspecified) + Cc1cccc(N(C)C(=O)C2C(O)CCN2c2nc(C)cc(C(F)(F)F)c2C#N)c1
Second compound 0.0316 µM
  IC50: > 10 µM
Second compound 0.1 µM
  IC50: > 10 µM
Second compound 0.316 µM
  IC50: > 10 µM
Second compound 1 µM
  IC50: > 10 µM
Second compound 3.16 µM
  IC50: > 10 µM
Second compound 10 µM
  IC50: > 10 µM
[1]
  viability, T/C: 88.6%
[2]
  viability, T/C: 109%
[3]
  viability, T/C: 94.2%
[4]
  viability, T/C: 101%
[5]
  viability, T/C: 113%
[6]
  viability, T/C: 71.8%
[7]
  viability, T/C: 101%
[8]
  viability, T/C: 110%
[9]
  viability, T/C: 103%
[10]
  viability, T/C: 109%
[11]
  viability, T/C: 103%
[12]
  viability, T/C: 73.9%
[13]
  viability, T/C: 99.8%
[14]
  viability, T/C: 101%
[15]
  viability, T/C: 98.1%
[16]
  viability, T/C: 99.6%
[17]
  viability, T/C: 91.8%
[18]
  viability, T/C: 69.8%
[19]
  viability, T/C: 103%
[20]
  viability, T/C: 107%
[21]
  viability, T/C: 94.9%
[22]
  viability, T/C: 108%
[23]
  viability, T/C: 104%
[24]
  viability, T/C: 64.3%
[25]
  viability, T/C: 104%
[26]
  viability, T/C: 99.2%
[27]
  viability, T/C: 101%
[28]
  viability, T/C: 101%
[29]
  viability, T/C: 103%
[30]
  viability, T/C: 66.7%
[31]
  viability, T/C: 101%
[32]
  viability, T/C: 101%
[33]
  viability, T/C: 108%
[34]
  viability, T/C: 96.3%
[35]
  viability, T/C: 73.9%
[36]
  viability, T/C: 67.8%

## C=CC(=O)N1CCN(c2nc(=O)n(-c3c(C)ccnc3C(C)C)c3nc(-c4c(O)cccc4F)c(F)cc23)C(C)C1 (stereo unspecified) + Nc1ccc(C#CCN(C(=O)Cc2ncc(C(F)(F)F)cc2C(F)(F)F)c2ccc(F)cc2)nn1
Second compound 0.0316 µM
  IC50: > 10 µM
Second compound 0.1 µM
  IC50: > 10 µM
Second compound 0.316 µM
  IC50: > 10 µM
Second compound 1 µM
  IC50: > 10 µM
Second compound 3.16 µM
  IC50: > 10 µM
Second compound 10 µM
  IC50: > 10 µM
[1]
  viability, T/C: 115%
[2]
  viability, T/C: 99.3%
[3]
  viability, T/C: 96.9%
[4]
  viability, T/C: 99.6%
[5]
  viability, T/C: 89.2%
[6]
  viability, T/C: 66.8%
[7]
  viability, T/C: 103%
[8]
  viability, T/C: 101%
[9]
  viability, T/C: 98.3%
[10]
  viability, T/C: 90.6%
[11]
  viability, T/C: 85.5%
[12]
  viability, T/C: 63.5%
[13]
  viability, T/C: 95.2%
[14]
  viability, T/C: 96.7%
[15]
  viability, T/C: 95.2%
[16]
  viability, T/C: 91%
[17]
  viability, T/C: 78.8%
[18]
  viability, T/C: 62.2%
[19]
  viability, T/C: 96.3%
[20]
  viability, T/C: 95.2%
[21]
  viability, T/C: 96.6%
[22]
  viability, T/C: 94.6%
[23]
  viability, T/C: 84.4%
[24]
  viability, T/C: 67.3%
[25]
  viability, T/C: 92.6%
[26]
  viability, T/C: 89.2%
[27]
  viability, T/C: 97.7%
[28]
  viability, T/C: 93.8%
[29]
  viability, T/C: 85%
[30]
  viability, T/C: 67%
[31]
  viability, T/C: 88.2%
[32]
  viability, T/C: 94.4%
[33]
  viability, T/C: 95.2%
[34]
  viability, T/C: 82.9%
[35]
  viability, T/C: 87.7%
[36]
  viability, T/C: 65.4%
